This is an account of results in patent US8198287B2, “Substituted heteroaryl pyridopyrimidone derivatives” (Sanofi-Aventis, priority 2006, dated 2012).

Sequence of GSK3β (P49841 whole entry): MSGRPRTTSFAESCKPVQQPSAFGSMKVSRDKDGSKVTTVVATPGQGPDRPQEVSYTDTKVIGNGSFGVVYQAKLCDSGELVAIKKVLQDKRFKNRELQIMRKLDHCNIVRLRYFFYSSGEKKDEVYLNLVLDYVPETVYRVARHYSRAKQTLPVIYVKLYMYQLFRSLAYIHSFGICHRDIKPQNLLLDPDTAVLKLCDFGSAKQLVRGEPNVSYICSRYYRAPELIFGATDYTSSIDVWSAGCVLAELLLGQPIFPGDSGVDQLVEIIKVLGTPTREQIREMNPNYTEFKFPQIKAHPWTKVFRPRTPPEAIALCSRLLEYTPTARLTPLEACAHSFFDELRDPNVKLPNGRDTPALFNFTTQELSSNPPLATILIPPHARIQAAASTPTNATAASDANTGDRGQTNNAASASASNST

The target in this experiment is GSK3β (Homo sapiens, UniProt P49841). The experiment can be described thus: Inhibitory activity against GSK3β (33P-ATP phosphorylation of prephosphorylated GS1 peptide; two alternative protocols). The format is biochemical. The following applies: first or second protocol, not specified per compound. The protocol:
Inhibitory Activity of the Medicament of the Present Invention Against GSK3β
Two different protocols can be used.
In a first protocol: 7.5 μM of prephosphorylated GS1 peptide and 10 μM ATP (containing 300,000 cpm of ^33P-ATP) were incubated in 25 mM Tris-HCl, pH 7.5, 0.6 mM DTT, 6 mM MgCl2, 0.6 mM EGTA, 0.05 mg/ml BSA buffer for 1 hour at room temperature in the presence of GSK3beta (total reaction volume: 100 microliters).
In a second protocol: 4.1 μM of prephosphorylated GS1 peptide and 42 μM ATP (containing 260,000 cpm ^33P-ATP) were incubated in 80 mM Mes-NaOH, pH 6.5, 1 mM Mg acetate, 0.5 mM EGTA, 5 mM 2-mercaptoethanol, 0.02% Tween 20, 10% glycerol buffer for 2 hours at room temperature in the presence of GSK3beta.
Inhibitors were solubilized in DMSO (final solvent concentration in the reaction medium, 1%).
The reaction was stopped with 100 microliters of a solution made of 25 g polyphosphoric acid (85% P2O5), 126 ml 85% H3PO4, H2O to 500 ml and then diluted to 1:100 before use. An aliquot of the reaction mixture was then transferred to Whatman P81 cation exchange filters and rinsed with the solution described above. Incorporated ^33P radioactivity was determined by liquid scintillation spectrometry.
The phosphorylated GS-1 peptide had the following sequence:
NH2—[…](P)EDEE-COOH. (Woodgett, J. R. (1989) Analytical Biochemistry 180, 237-241.
Take `Nc1c(Cl)cc(C(=O)NC2CCCn3c2nc(-c2ccncc2)cc3=O)c2c1OCCO2` (racemic) [13 of table 1, (+/−)8-Amino-7-chloro-2,3-dihydro-benzo[1,4]dioxine-5-carboxylic acid (4-oxo-2-pyridin-4-yl-6,7,8,9-tetrahydro-4H-pyrido[1,2-a]pyrimidin-9-yl)-amide]: the half-maximal inhibitory concentration (IC50) was found to be 14 nM. That is a double-digit nanomolar value. In the case of `CSc1ncc(Cl)c(C(=O)NC2CCn3c2nc(-c2ccncn2)cc3=O)n1` (racemic) [14 of table 2, (+/−)5-Chloro-2-methylsulfanyl-pyrimidine-4-carboxylic acid (4-oxo-2-pyrimidin-4-yl-4,6,7,8-tetrahydro-pyrrolo[1,2-a]pyrimidin-8-yl) -amide], the IC50 was 4 nM. Under `O=C(NC1CCCCn2c1nc(-c1ccncn1)cc2=O)c1cccc(Cl)n1` (racemic) [53 of table 3, (+/−)6-Chloro-pyridine-2-carboxylic acid (4-oxo-2-pyrimidin-4-yl-4,6,7,8,9,10-hexahydro-pyrimido[1,2-a]azepin-10-yl)-amide] stands 5 nM.

The term IC50 denotes the concentration that inhibits the measured activity by half.
